Laboratory results taken from article PMC10840383, “Clinical features, functional consequences, and rescue pharmacology of missense GRID1 and GRID2 human variants” (Human Molecular Genetics, 2023).
Changes are numbered by the printed parent chain.

Tests used:
Format in all cases: cell-based
Conditions in all cases: positive = increase, negative = decrease of activity
[1] = target: T1, GluD1-S647F (Homo sapiens, UniProt Q9ULK0, S647F); test: TEVC of constitutive current, Xenopus oocytes expressing GluD1-S647F
T1 construct: expressed in transfected cells; host or cells: Xenopus laevis oocytes injected with cRNA
T1 sequence (Q9ULK0 21-1009 S647F): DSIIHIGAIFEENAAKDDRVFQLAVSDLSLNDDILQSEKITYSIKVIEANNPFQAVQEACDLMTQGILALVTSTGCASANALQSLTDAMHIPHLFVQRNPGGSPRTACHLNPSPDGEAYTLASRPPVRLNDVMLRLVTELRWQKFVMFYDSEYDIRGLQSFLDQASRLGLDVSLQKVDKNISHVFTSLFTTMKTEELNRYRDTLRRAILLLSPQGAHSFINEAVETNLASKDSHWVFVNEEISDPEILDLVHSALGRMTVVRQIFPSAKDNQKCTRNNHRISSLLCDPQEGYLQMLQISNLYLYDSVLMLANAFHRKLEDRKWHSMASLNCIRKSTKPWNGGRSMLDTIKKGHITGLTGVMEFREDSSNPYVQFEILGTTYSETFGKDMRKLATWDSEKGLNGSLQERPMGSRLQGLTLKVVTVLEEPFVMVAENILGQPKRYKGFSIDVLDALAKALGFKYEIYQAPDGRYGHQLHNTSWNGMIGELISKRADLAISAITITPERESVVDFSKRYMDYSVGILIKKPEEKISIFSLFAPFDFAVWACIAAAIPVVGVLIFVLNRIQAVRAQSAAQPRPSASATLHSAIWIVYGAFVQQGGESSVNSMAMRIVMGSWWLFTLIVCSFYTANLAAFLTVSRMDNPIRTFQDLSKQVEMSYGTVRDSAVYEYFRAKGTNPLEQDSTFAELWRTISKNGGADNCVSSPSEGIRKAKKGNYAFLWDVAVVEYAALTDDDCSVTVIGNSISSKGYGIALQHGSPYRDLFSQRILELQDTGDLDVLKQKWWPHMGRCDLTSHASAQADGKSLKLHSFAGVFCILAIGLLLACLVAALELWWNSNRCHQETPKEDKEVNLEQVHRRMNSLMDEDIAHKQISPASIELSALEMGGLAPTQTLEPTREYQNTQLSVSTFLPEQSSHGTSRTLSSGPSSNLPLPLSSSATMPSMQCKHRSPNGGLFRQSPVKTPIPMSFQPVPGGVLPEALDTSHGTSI

[2] = target: T2, GluD2-R710W (Rattus norvegicus, UniProt Q63226, R710W); test: TEVC of constitutive current, Xenopus oocytes expressing GluD2-R710W
T2 construct: expressed in transfected cells; host or cells: Xenopus laevis oocytes injected with cRNA
T2 sequence (Q63226 24-1007 R710W): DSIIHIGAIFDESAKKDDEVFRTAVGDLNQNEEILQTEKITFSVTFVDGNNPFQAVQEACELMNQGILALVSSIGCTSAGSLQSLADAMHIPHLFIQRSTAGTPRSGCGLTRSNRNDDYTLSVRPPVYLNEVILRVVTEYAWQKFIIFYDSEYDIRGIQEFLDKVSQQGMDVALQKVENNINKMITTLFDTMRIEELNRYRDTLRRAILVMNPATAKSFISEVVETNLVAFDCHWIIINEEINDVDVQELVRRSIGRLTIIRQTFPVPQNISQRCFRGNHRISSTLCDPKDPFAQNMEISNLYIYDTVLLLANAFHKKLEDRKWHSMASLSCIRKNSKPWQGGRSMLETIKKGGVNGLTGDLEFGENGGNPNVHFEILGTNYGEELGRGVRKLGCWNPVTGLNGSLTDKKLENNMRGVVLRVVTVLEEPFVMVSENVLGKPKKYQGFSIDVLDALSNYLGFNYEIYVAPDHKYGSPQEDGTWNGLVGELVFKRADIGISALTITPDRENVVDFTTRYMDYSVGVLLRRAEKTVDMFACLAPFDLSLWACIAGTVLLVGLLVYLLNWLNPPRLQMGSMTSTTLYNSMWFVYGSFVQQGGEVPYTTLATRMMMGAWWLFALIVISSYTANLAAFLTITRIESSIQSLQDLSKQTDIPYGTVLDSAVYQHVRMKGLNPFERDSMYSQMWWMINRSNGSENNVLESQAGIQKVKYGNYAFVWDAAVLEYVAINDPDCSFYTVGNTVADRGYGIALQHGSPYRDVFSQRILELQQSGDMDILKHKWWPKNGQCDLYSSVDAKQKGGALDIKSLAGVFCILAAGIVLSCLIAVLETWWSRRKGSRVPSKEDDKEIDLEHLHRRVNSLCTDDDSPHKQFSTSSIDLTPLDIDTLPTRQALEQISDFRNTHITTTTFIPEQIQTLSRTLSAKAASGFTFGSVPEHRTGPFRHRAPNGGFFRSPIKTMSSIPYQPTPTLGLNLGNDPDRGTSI

[3] = target: T3, GluD2-T649M (Rattus norvegicus, UniProt Q63226, T649M); test: TEVC of constitutive current, Xenopus oocytes expressing GluD2-T649M
T3 construct: expressed in transfected cells; host or cells: Xenopus laevis oocytes injected with cRNA
T3 sequence (Q63226 24-1007 T649M): T2 sequence (Q63226 24-1007 R710W) with T626M, W687R

SMILES	D-Serine effect (Baseline −10 mM D-Serine) ([1]; 10 mM D-serine)	D-Serine effect (Baseline −10 mM D-Serine) ([2]; 10 mM D-serine)	D-Serine effect (Baseline −10 mM D-Serine) ([3]; 10 mM D-serine)	Pentamidine effect (Baseline −100 μM Pentamidine) ([1]; 100 μM pentamidine)	Pentamidine effect (Baseline −100 μM Pentamidine) ([2]; 100 μM pentamidine)	Pentamidine effect (Baseline −100 μM Pentamidine) ([3]; 100 μM pentamidine)
N[C@H](CO)C(=O)O [D-serine]	14 ± 3.8 (10) nA	−2.3 ± 0.60 (11) nA	−0.31 ± 2.8 (16) nA			
N=C(N)c1ccc(OCCCCCOc2ccc(C(=N)N)cc2)cc1 [Pentamidine, pentamidine]				−47 ± 11 (10) nA	0.82 ± 1.9 (11) nA	5.8 ± 7.0 (16) nA
